The values that follow come from patent US3950393A, “Aminobenzyl-amides and salts thereof” (Boehringer Ingelheim GmbH, priority 1973, dated 1976).

Where a name gives a salt, the structure may show the parent alone. Read-outs that look alike come from different tables or passages of the source. A value given as a limit tells only on which side of the number the result lay.

One series deals with guinea pigs. The series is described as follows: Secretolytic (expectorant) effect in anesthetized guinea pigs after oral application. In kind it is in vivo. As to conditions: 8 mgm/kg oral, within 2 hours, 6-8 animals. On the procedure: (§1) The expectorant activity was tested on anesthetized rabbits and guinea pigs after oral application of 8 mgm/kg of the test compound to 6-8 animals. The increase in secretion within 2 hours was calculated from the amounts of secretion before and after application of the substance [see Perry and Boyd in Pharmakol. exp. Therap. 73, 65 (1941)].

The next series relates to white mice. The series is described as follows: in vivo. On the procedure: (§2) The acute toxicity of the test compounds was determined after a single application of 1000 or 2000 mgm/kg p.o., respectively, to 5 white mice each.
Another series has as its system cats. The series is described as follows: Circulatory effect in cats under chloralose-urethane anesthesia after intravenous application. Format: in vivo. The note with it: 2, 4 and 8 mgm/kg intravenous, 3 animals per dose. On the procedure:
The circulatory effect in cats was determined under chloralose-urethane anesthesia after intravenous application of 2,4 and 8 mgm/kg of the test compound (3 animals per dose).

A short description of another series: in vivo. The note with it: mouse, in vivo, po. On the procedure: as §2
The next series deals with ulcers. The series is described as follows: Anti-ulcerogenic activity, acetic acid stomach ulcers, method of K. Takagi et al. In kind it is in vivo, female rats. As to conditions: three weeks with food. On the procedure: The inhibiting effect of the test compounds on the formation of ulcers was determined according to the method of K. Takagi et al [Jap. J. Pharmac. 19, 418 (1969)]. The abdominal cavity of anesthetized female rats having a body weight from 220 to 250 gm was opened and the stomach was exposed. Then, 0.05 ml of an aqueous 5% acetic acid solution was injected between the muscularis mucosae and submucosa of the stomach. Thereafter, the abdominal cavity was closed again. The ulcers formed in the mucosa after 3 to 5 days were treated for three weeks by admixing the test compound in question with the food at dosage levels of 50 and 100 mgm/kg (6 animals/dose). The control animals were fed with the pulverized food only.
After treatment for three weeks the animals were killed, the stomach was removed, and the size of the ulcers was determined by measurement of their length and width. The anti-ulcerogenic activity of the test compound was determined by the size of the ulcers comparing with the control values (100%): […]

The next series relates to rabbits. Put plainly: Secretolytic (expectorant) effect in anesthetized rabbits after oral application. In kind it is in vivo. The note with it: 8 mgm/kg oral, within 2 hours, 6-8 animals. The procedure:
as §1

Setting [1] is: single application, 5 white mice, read-out: Acute toxicity.

In the series with guinea pigs, “2-amino-3-bromo-N-cyclohexyl-N-ethyl-3-fluoro-benzylamine hydrochloride” displayed an Increase in secretion of 100%. The animals died in the series on white mice (single 1000 mgm/kg p.o.) is recorded as 0 out of 5.

Turning to `CCOC(=O)c1cc(Br)c(N)c(CN(CC)CC)c1.Cl` [A, 2-amino-3-bromo-5-carbethoxy-N,N-diethyl-benzylamine hydrochloride], in the series with cats, the Circulatory effect entry is reported as “no change”. In addition, in the series on guinea pigs, the Increase in secretion stood at 90%. Besides, the animals died in the series on white mice (single 2000 mgm/kg p.o.) is 0 out of 5. Further, the LD50 in the series “in vivo” (setting [1]) was greater than 2000 mg/kg. In addition, the “reduction of the ulcers compared with control values” with ulcers (peroral dosage of 50 mgm/kg) stood at 52%; with ulcers (peroral dosage of 100 mgm/kg) it was 79%.

Regarding `CCN(Cc1cc(C(=O)O)cc(Br)c1N)C1CCCCC1.Cl` [B, 2-amino-3-bromo-5-carboxy-N-cyclohexyl-N-ethyl-benzylamine hydrochloride], in the series on cats, the Circulatory effect entry is on record as “no change”. For the same molecule, the Increase in secretion in the series with guinea pigs is given as 81%. For the same molecule, in the series with white mice (single 1000 mgm/kg p.o.), the animals died was 0 out of 5. Further, the LD50 in the series “in vivo” (setting [1]) is greater than 1000 mg/kg.

Regarding `Cc1cc(Br)cc(CN2CCCCCC2)c1N` [D, N-(2-amino-5-bromo-3-methyl-benzyl)-hexamethyleneamine dihydrochloride], the Increase in secretion in the series with rabbits came to 72%. In addition, the animals died in the series with white mice (single 1000 mgm/kg p.o.) was 0 out of 5. In the series “in vivo”, this molecule yielded an LD50 greater than 1000 mg/kg.

The molecule `CC(C)(C)c1cc(N)c(CN2CCOCC2)cc1Br.Cl.Cl` [E, N-(2-amino-5-bromo-4-tert.butyl-benzyl)-morpholine dihydrochloride] registered an Increase in secretion with rabbits of 77%. Also, in the series with white mice (single 1000 mgm/kg p.o.), the animals died is on record as 0 out of 5. In addition, the LD50 in “in vivo” (setting [1]) is greater than 1000 mg/kg.

Molecule `CC(=O)c1cc(Br)c(N)c(CN(C)C)c1` [F, 5-acetyl-2-amino-3-bromo-N,N-dimethyl-benzylamine] returned an Increase in secretion in the series on rabbits of 75%. Also, in the series with white mice (single 1000 mgm/kg p.o.), the animals died is 2 out of 5. In the series “in vivo” (setting [1]), the LD50 is roughly 1000 mg/kg.

The molecule `CN(C)Cc1cc(F)cc(Br)c1N.Cl` [G, 2-amino-3-bromo-N,N-dimethyl-5-fluoro-benzylamine hydrochloride] registered an Increase in secretion in the series with guinea pigs of 84%. The animals died in the series on white mice (single 1000 mgm/kg p.o.) was 0 out of 5. In the series “in vivo” (setting [1]), the LD50 was greater than 1000 mg/kg.
